# Experiment: HILIC, Waters ACQUITY UPLC BEH Amide, 100 × 2.1 mm, 1.7 µm; A: water + 0.125% formic acid + 10 mM ammonium formate; B: 5% water + 95% acetonitrile + 0.125% formic acid + 10 mM ammonium formate; gradient (min/%B) 0/100 2/100 7.7/70 9.5/40 10.25/30 12.75/100 17/100
# Conditions: stereoisomer not certain
row,SMILES,LC retention time [min]
1,Cc1cn(C2OC(CO)C(O)C2O)c(=O)[nH]c1=O (stereo unspecified) [5-Methyluridine],4.19
2,CCCCCCCCCOc1ccc2[nH]cc(CCN)c2c1 [5-Nonyloxytryptamine],3.4
3,Nc1ccc2cn[nH]c2c1 [6-Aminoindazole],1.26
4,O=c1cnn(C2OC(CO)C(O)C2O)c(=O)[nH]1 (stereo unspecified) [6-Azuridine],4.31
5,O=C(O)CCCCCO [6-Hydroxycaproic acid],1.34
6,O=c1cc(-c2ccccc2)oc2ccc(O)cc12 [6-Hydroxyflavone],1.26
7,CC(C)=CCCC(C)O (stereo unspecified) [6-Methyl-5-hepten-2-ol],7.3
8,CNc1ncnc2c1ncn2C1OC(CO)C(O)C1O (stereo unspecified) [6-Methyladenosine],3.56
9,CSc1ncnc2nc[nH]c12 [6-Methylmercaptopurine],1.49
10,"CC(O)C(O)C1=Nc2c(nc(N)[nH]c2=O)NC1 (stereo unspecified) [7,8-Dihydrobiopterin]",7.18
11,Cn1c[n+](C2OC(CO)C(O)C2O)c2nc(N)[nH]c(=O)c21 (stereo unspecified) [7-Methylguanosine],7.34
12,O=[N+]([O-])c1cccc2cn[nH]c12 [7-Nitroindazole],1.03
13,Nc1ncnc2c1[nH]c(=O)n2C1CC(O)C(CO)O1 (stereo unspecified) [8-Oxo-2-deoxyadenosine],5.11
14,CC12CCC3c4ccc(O)cc4CCC3C1CC(OC1OC(C(=O)O)C(O)C(O)C1O)C2O (stereo unspecified) [16-Glucuronide-estriol],6.49
15,"O=C(O)CC1C(=O)Nc2ccccc21 (stereo unspecified) [(2-oxo-2,3-dihydro-1H-indol-3-yl)acetic acid]",2.02
16,CCCC(=O)OC(CC(=O)[O-])C[N+](C)(C)C [(R)-Butyrylcarnitine],5.77
17,CN1C(=O)CCC1c1ccc[n+]([O-])c1 [(S)-Cotinine N-oxide],3.87
18,CN(C)C(N)=NCCCC(N)C(=O)O (stereo unspecified) [ADMA],8.55
19,CCCCCC=CCC=CCC=CCC=CCCCC(=O)Nc1ccc(O)cc1 [AM 404],0.97
20,CC(C)C1=CC2=CCC3C(C)(C(=O)O)CCCC3(C)C2CC1 (stereo unspecified) [Abietic acid],1.11
21,CC(C=CC1(O)C(C)=CC(=O)CC1(C)C)=CC(=O)O (stereo unspecified) [Abscisic acid],1.33
22,CC1OC(OC2C(CO)OC(OC3C(CO)OC(O)C(O)C3O)C(O)C2O)C(O)C(O)C1NC1C=C(CO)C(O)C(O)C1O (stereo unspecified) [Acarbose],9.88
23,CC(=O)Nc1ccc(OC2OC(C(=O)O)C(O)C(O)C2O)cc1 (stereo unspecified) [Acetaminophen glucuronide],7.73

row,SMILES,LC retention time [min]
1,CC(=O)Nc1ccc(O)cc1 [Acetaminophen],1.37
2,CC(=O)Nc1ccccc1 [Acetanilide],1.11
3,CC(=O)NO [Acetohydroxamic acid],2.94
4,CC(=O)OC(CC(=O)[O-])C[N+](C)(C)C (stereo unspecified) [Acetylcarnitine],7.19
5,CC(=O)N1C(=O)C(=O)c2ccccc21 [Acetylisatin],2.4
6,Cc1c2oc3c(C)ccc(C(=O)NC4C(=O)NC(C(C)C)C(=O)N5CCCC5C(=O)N(C)CC(=O)N(C)C(C(C)C)C(=O)OC4C)c3nc-2c(C(=O)NC2C(=O)NC(C(C)C)C(=O)N3CCCC3C(=O)N(C)CC(=O)N(C)C(C(C)C)C(=O)OC2C)c(N)c1=O (stereo unspecified) [Actinomycin D],1.03
7,CC(=O)Nc1ccc(CC(=O)O)cc1 [Actrarit],1.58
8,Nc1ncnc2nc[nH]c12 [Adenine],4.71
9,"Nc1ncnc2c1ncn2C1OC2COP(=O)(O)OC2C1O (stereo unspecified) [Adenosine 3',5'-cyclic monophosphate]",7.62
10,Nc1ncnc2c1ncn2C1OC(COP(=O)(O)O)C(O)C1O (stereo unspecified) [Adenosine 5'-monophosphate],8.88
11,Nc1ncnc2c1ncn2C1OC(CO)C(OP(=O)(O)O)C1O (stereo unspecified) [Adenosine-3-monophosphate],8.88
12,Nc1ncnc2c1ncn2C1OC(CO)C(O)C1O (stereo unspecified) [Adenosine],4.77
13,CC12CC(=O)C3C(CCC4=CC(=O)CCC43C)C1CCC2=O (stereo unspecified) [Adrenosterone],1.1
14,NCCCCN=C(N)N [Agmatine],8.92
15,CC(N)C(=O)NC(C)C(=O)O (stereo unspecified) [Ala-Ala],8.41
16,CC(N)C(=O)NC(CCC(N)=O)C(=O)O (stereo unspecified) [Ala-Gln],9.11
17,CCC(C)C(NC(=O)C(C)N)C(=O)O (stereo unspecified) [Ala-Ile],7.83
18,CC(C)CC(NC(=O)C(C)N)C(=O)O (stereo unspecified) [Ala-Leu],7.6
19,CC(N)C(=O)NC(C(=O)O)C(C)C (stereo unspecified) [Ala-Val],7.66
20,CC(N)C(=O)O (stereo unspecified) [Alanine],8.05
21,CCCSc1ccc2nc(NC(=O)OC)[nH]c2c1 [Albendazole],1.22
22,CC(C)(C)NCC(O)c1ccc(O)c(CO)c1 (stereo unspecified) [Albuterol],5.55
23,COc1cc2nc(N(C)CCCNC(=O)C3CCCO3)nc(N)c2cc1OC (stereo unspecified) [Alfuzosin],4.29

row,SMILES,LC retention time [min]
1,NC(=O)NC(NC(N)=O)C(=O)O [Allantoic acid],8.56
2,Cc1[nH]cnc1CN1CCc2c(c3ccccc3n2C)C1=O [Alosetron],4.19
3,Cc1nnc2n1-c1ccc(Cl)cc1C(c1ccccc1)=NC2 [Alprazolam],1.34
4,O=C(c1ccc(F)cc1)C1CCN(CCn2c(=S)[nH]c3ccccc3c2=O)CC1 [Altanserin],2.64
5,NC12CC3CC(CC(C3)C1)C2 [Amantadine],4.88
6,NC(N)=NC(=O)c1nc(Cl)c(N)nc1N [Amiloride],5.52
7,CCCCc1oc2ccccc2c1C(=O)c1cc(I)c(OCCN(CC)CC)c(I)c1 [Amiodarone],1.87
8,CCN1CCCC1CNC(=O)c1cc(S(=O)(=O)CC)c(N)cc1OC (stereo unspecified) [Amisulpride],2.76
9,CC(C)c1ccc2oc3nc(N)c(C(=O)O)cc3c(=O)c2c1 [Amlexanox],1.81
10,CCOC(=O)C1=C(COCCN)NC(C)=C(C(=O)OC)C1c1ccccc1Cl (stereo unspecified) [Amlodipine],4.24
11,CC(N)Cc1ccccc1 (stereo unspecified) [Amphetamine],4.6
12,CCOC(=O)OC(C)OC1=C(C(=O)Nc2ccccn2)N(C)S(=O)(=O)c2ccccc21 (stereo unspecified) [Ampiroxicam],0.95
13,O=C1CN2Cc3c(ccc(Cl)c3Cl)N=C2N1 [Anagrelide],1.82
14,CC(C)(C#N)c1cc(Cn2cncn2)cc(C(C)(C)C#N)c1 [Anastrozole],0.98
15,"CC12CCC3C(CCC4CC(O)CCC43C)C1CCC2O (stereo unspecified) [Androstane-3,17-diol]",0.96
16,CC12CCC3C(CCC4=CC(=O)CCC43C)C1CCC2=O (stereo unspecified) [Androstenedione],1.09
17,CC12CCC3C(CCC4CC(O)CCC43C)C1CCC2=O (stereo unspecified) [Androsterone],4.62
18,Cn1cncc1CC(NC(=O)CCN)C(=O)O (stereo unspecified) [Anserine],9.49
19,CCCCCC=CCC=CCC=CCC=CCCCC(=O)NCCc1ccc(O)c(O)c1 [Arachidonyl dopamine],1.14
20,CC(NC(=O)C(N)CCCN=C(N)N)C(=O)O (stereo unspecified) [Arg-Ala],9.66
21,NC(N)=NCCCC(N)C(=O)NCC(=O)O (stereo unspecified) [Arg-Gly],9.85
22,NC(N)=NCCCC(N)C(=O)N1CCCC1C(=O)O (stereo unspecified) [Arg-Pro],9.51
23,NC(N)=NCCCC(N)C(=O)NC(CO)C(=O)O (stereo unspecified) [Arg-Ser],9.9

row,SMILES,LC retention time [min]
1,CC(C)C(NC(=O)C(N)CCCN=C(N)N)C(=O)O (stereo unspecified) [Arg-Val],9.3
2,CC1CNc2c(cccc2S(=O)(=O)NC(CCCN=C(N)N)C(=O)N2CCC(C)CC2C(=O)O)C1 (stereo unspecified) [Argatroban],5.45
3,NC(N)=NCCCC(N)C(=O)O (stereo unspecified) [Arginine],9.53
4,O=C1CCc2ccc(OCCCCN3CCN(c4cccc(Cl)c4Cl)CC3)cc2N1 [Aripiprazole],3.14
5,O=C1OC(C(O)CO)C(O)=C1O (stereo unspecified) [Ascorbic acid],1.44
6,NC(CC(=O)O)C(=O)NC(CCC(=O)O)C(=O)O (stereo unspecified) [Asp-Glu],9.47
7,NC(CC(=O)O)C(=O)NC(Cc1ccccc1)C(=O)O (stereo unspecified) [Asp-Phe],8.14
8,NC(=O)CC(N)C(=O)O (stereo unspecified) [Asparagine],8.81
9,NC(CC(=O)O)C(=O)O (stereo unspecified) [Aspartic acid],9.33
10,CNCCC(Oc1ccccc1C)c1ccccc1 (stereo unspecified) [Atomoxetine],2.42
11,CN1C2CCC1CC(OC(=O)C(CO)c1ccccc1)C2 (stereo unspecified) [Atropine],4.32
12,CN1C(=O)COc2c(C(=O)NC3CN4CCC3CC4)cc(Cl)cc21 (stereo unspecified) [Azasetron],4.66
13,CN1CCCC(n2nc(Cc3ccc(Cl)cc3)c3ccccc3c2=O)CC1 (stereo unspecified) [Azelastine],2.95
14,O=C(O)CCNC(=O)c1ccc(N=Nc2ccc(O)c(C(=O)O)c2)cc1 [Balsalazide],4.85
15,CC1CC2C3CCC4=CC(=O)C=CC4(C)C3(Cl)C(O)CC2(C)C1(O)C(=O)CO (stereo unspecified) [Beclomethasone],1.26
16,CCN(CC)CCOC(=O)C(O)(c1ccccc1)c1ccccc1 [Benactyzine],2.16
17,CCOC(=O)C(CCc1ccccc1)NC1CCc2ccccc2N(CC(=O)O)C1=O (stereo unspecified) [Benazepril],1.33
18,COC(=O)C1=C(C)NC(C)=C(C(=O)OC2CCCN(Cc3ccccc3)C2)C1c1cccc([N+](=O)[O-])c1 (stereo unspecified) [Benidipine],1.46
19,CC(COc1ccccc1Cc1ccccc1)N1CCCCC1 (stereo unspecified) [Benproperine],1.99
20,NC(=O)c1ccccc1 [Benzamide],1.27
21,c1ccc2scnc2c1 [Benzothiazole],1.11
22,CN1C2CCC1C(C(=O)O)C(OC(=O)c1ccccc1)C2 (stereo unspecified) [Benzoylecgonine],3.63

# Source: the RepoRT retention time repository
